“Also recorded” adds a separate entry of the source.
Tests used:
[1] = test system: 3D-MPS derived from SUM149-PT cells; experiment: Real-time growth of RFP-tagged 3D-mammospheres (3D-MPS); type: cell-based, human; conditions: SUM149-PT 3D-MPS, AV-353 100 ng and/or DTX 5 nM, 96 hours
Protocol: FIGS. 7A and 7B show results from treatment of 3D-mammospheres (3D-MPS) of SM149-PT TNBC cells with AV-353 (½ IC50: 100 ng) and/or DTX (½ IC50: 5 nM). FIG. 7A includes representative images of RFP-tagged 3DMPS before and after treatment with AV-353 (½ IC50: 100 ng) and/or DTX (½ IC50: 5 nM) for 96 hours, using Annexin-V (red) as a marker of early apoptosis. FIG. 7B is a graph plotting real-time growth of RFP-tagged 3D-MPS before and after treatment with AV-353 (½ IC50: 100 ng) and/or DTX (½ IC50: 5 nM) for 96 hours. 3D-MPS growth was quantified using the INCUCYTE® Cell Player System. Three independent experiments were performed in triplicate (±S.D.).
(§1) Mammospheres Formation: Human breast cancer cells were plated in ultra-low attachment 24-well and 96-well culture dishes in 100 μL of MAMMOCULT™ medium (STEMCELL™ Technologies; Vancouver, BC, Canada). Medium was added every 2 days for a maximum of 8 days. Mammospheres were trypsinized and expanded every 8 days to form tertiary mammospheres, and their growth was recorded through a digital camera (Nikon).
Real-Time Cell Proliferation, Cytotoxicity and Apoptosis Assays: 5,000 cells were plated in Costar […] plates, treated with Docetaxel (DTX) and/or AV-353 (as monotherapy or in combination). Cell proliferation was monitored in real-time by GFP or RFP fluorescence intensity, and Red Annexin-V was used as an early marker of apoptosis. […]

TNBC-M25 3D-MPS = experiment: TNBC-M25 mammosphere growth (area, Image-J); type: cell-based, human
Protocol: FIGS. 4A and 4B show NOTCH3 genetic targeting in TNBC-M25 mammospheres. FIG. 4A includes images of TNBCM25 single-cell dilutions grown under non-adherent conditions. After 48 hours of incubation, mammospheres were treated with 5 nM (½ IC50) or 10 nM (IC50) docetaxel (DTX) for 10 days. FIG. 4B is a graph plotting mammosphere area measured using the NIH Image-J software. Three independent experiments were performed in triplicate (±S.D.).
as §1
as §1, with “Mammosphere Formation:” for “Mammospheres Formation:”, “attachment 24-” for “attachment 24-well”, “(STEMCELL™ Technologies), and medium” for “(STEMCELL™ Technologies; Vancouver, BC, Canada). Medium”

[2] = Toxicology studies, PTX with escalating doses of AV-353; type: in vivo, female NSG mice; conditions: PTX 10 mg/Kg, AV-353 100, 200, 400 ug
Protocol: FIG. 17 is a series of graphs plotting liver toxicity in mice treated with saline (CON), paclitaxel 10 mg/Kg (PTX), paclitaxel 10 mg/Kg+AV-353 100 ug (PTX+AV100), paclitaxel 10 mg/Kg+AV-353 200 ug (PTX+AV200), or paclitaxel 10 mg/Kg+AV-353 400 ug (PTX+AV400), based on measurements of liver function indicators: alanine aminotransferase (ALT), aspartate aminotransferase (AST), alkaline phosphatase (ALP), and total bilirubin (TBIL), as well as an indicator of kidney function (creatinine; CRE), and an indicator of general nutritional status (albumin; ALB). Blood samples (1 ml) were collected from animals, and liver enzyme analysis was carried out using a VETSCAN® instrument (Zoetis; Parsippany, NJ).
Toxicology studies: Female NSG mice received saline solution (control) or 10 mg/Kg paclitaxel (PTX) as monotherapy or in combination with escalating doses of AV-353 (AV100 ug, AV200 ug, and AV400 ug). PTX and AV-353 were administered intraperitoneally 3 times per week for 4 weeks. […] After drug treatment, animals were euthanized and organs of interest (liver and stomach) were paraffin embedded, sectioned, and hematoxylin and eosin stained. […] Although no liver damage was detected at the morphological or histological level, further studies were conducted to determine the extent to which the drug treatments induced an increase of liver enzymes. […]

SMILES	mammosphere (3D-MPS) growth [1]	IC50 (TNBC-M25 3D-MPS; Homo sapiens, TNBC-M25 mammospheres) [nM]	3D-MPS growth (TNBC-M25 3D-MPS; TNBC-M25 3D-MPS)	liver and stomach histology (H&E) ([2]; 3 times per week for 4 weeks)	body weight ([2]; intraperitoneally 3 times per week for 4 weeks)
CC(=O)O[C@@]12CO[C@@H]1C[C@H](O)[C@@]1(C)C(=O)[C@H](O)C3=C(C)[C@@H](OC(=O)[C@H](O)[C@@H](NC(=O)OC(C)(C)C)c4ccccc4)C[C@@](O)([C@@H](OC(=O)c4ccccc4)[C@H]21)C3(C)C [DTX, docetaxel]	small effect on growth	10	did not inhibit 3D MPS growth		
CC(=O)O[C@H]1C(=O)[C@@]2(C)[C@H]([C@H](OC(=O)c3ccccc3)[C@]3(O)C[C@H](OC(=O)[C@H](O)[C@@H](NC(=O)c4ccccc4)c4ccccc4)C(C)=C1C3(C)C)[C@]1(OC(C)=O)CO[C@@H]1C[C@@H]2O [PTX, paclitaxel]				No significant damage; also recorded: no significant changes in the architecture of liver and stomach tissue	did not induce body weight loss

Reference: patent US20250345419A1, “TREATING CHEMORESISTANT CANCERS WITH NOTCH3 INHIBITORS” (Mayo Foundation for Medical Education and Research, priority 2022, published 2025)
